These results are taken from US8729053B2, “Nuclear factor kappa B pathway inhibitor composition and use of same” (The United States of America, as represented by the …, priority 2008, dated 2014).

Structures can show the parent of a compound that is named as a salt.

For experiment [1], the system named is NFκB. As to the kind of experiment: NFκB luciferase reporter assay in HEK293 cells. The class given is cell-based. The method, then:
(§1) All expression plasmids were transiently transfected into HEK293 cells in a 96-well plate (0.1 μg/well) by using Effectene transfection reagent (Qiagen, Valencia, Calif.) according to the manufacturer's manual. HEK293 cells were maintained in Dulbecco's modified Eagle medium (Sigma, St. Louis, Mo.) supplemented with 10% fetal bovine serum (Atlanta Biologicals, Lawrenceville, Ga.) and incubated at 37° C. in a 5% CO2 incubator. After 24 hrs incubation, the medium was changed to DMEM with 0.2% FBS, and the transfectants were exposed to various concentrations of compound I and TPA (10 ng/ml). Cells were lysed with passive lysis buffer and the luciferase assay was performed using the Firefly-Luciferase reporter assay system (Promega, Madison, Wis.) and MLX Luminometer (Dynex Technology, Chantilly, Va.).
Three different luciferase reporter genes, AP-1 reporter containing four times TRE consensus originated from GCN4 and SRE reporter purchased from Stratagene (La Jolla, Calif.) respectively are as described previously (Suzukawa et al., Environ. Health Perspect., 2002, 110, 865-70). NFκB reporter is driven by five times NFκB responsive element inserted into Cis-reporter backbone (Stratagene, La Jolla, Calif.). Others include mouse COX-2 promoter region from −203 to +70 relative to the transcription site inserted into pTIS10L vector (Kim and Fischer, J. Biol. Chem., 1998, 273, 27686-94), human uPAR promoter region from −141 to +47 relative to transcription start site in pGL3 vector (Wang et al., Eur. J. Biochem., 2000, 267, 3248-54), and human VEGF promoter sequence from −2274 to +379 inserted into the pGL2 vector (Ding et al., J. Biol. Chem., 2006, 281, 9093-100).
To evaluate whether the compound I biological activity can imitate TAM67 specificity, three different transcriptional promoter reporters were used, AP-1, NFκB, and SRE (Serum response element) in luciferase reporter assays (FIG. 1A: The transfected cells were pre-treated with varied concentrations of compound I or DMSO for 1 hour before 18 hours stimulation by TPA (10 ng/ml) or DMSO as vehicle. An asterisk (*) indicates a separate experiment with NFκB dependent luciferase only. Assays were performed with two independent experiments each in quadruplicate.). All three activities were induced by TPA but only induction of AP-I and NFκB were inhibited by TAM67. The SRE reporter was used as a specificity control and indicator of cell proliferation. TPA-induced SRE activity was not repressed by TAM67 when coexpressed with the SRE-Luc reporter in HEK293 cells. The same concentration (10 ng/ml, 16.2 nM) and incubation time (18 hrs) were used for TPA induction as previously used for the high throughput screen (HTS) (Ruocco et al., J. Biomol. Screen., 2007, 12, 133-9) along with 1 h pretreatment of compound I. The screening results had tested concentrations as high as 40 μM compound I with cell numbers showing 95.5+/−6.2% of DMSO control (ave+/− sd, n=3) by the XTT assay in HEK293T cells.

Experiment [2] concerns NFκB. Description: EMSA of NFκB DNA binding, HEK293 nuclear fractions. The experiment is classed as cell-based. The protocol: EMSA was performed with the nuclear fraction of HEK293 cell using LightShift Chemiluminescent EMSA Kit (Pierce Biotechnology, Rockford, Ill.) according to the manufacture's instruction. Oligonucleotides for NFκB, NF-1, and AP-1 were labeled with biotin by Biotin 3′ End DNA labeling Kit (Pierce Biotechnology, Rockford, Ill.). The quantified 15 μg of nuclear extracts were incubated for 20 mins with 1 μg/μl Poly (dI.dC), biotin end-label target nucleotides in 20 μl binding buffer DNA-protein complexes were fractionated on 6% a polyacrylamide gel and transferred to a nylon membrane. The membranes were processed to detect biotin-label DNA by cross-linking, blocking, and detection incubations. Results were obtained by X-ray film exposure for 10 sec and development. The target sequences of oligonucleotides for NFκB, NF-1, and AP-1 are as follows;
To determine whether the effect of compound I on nuclear translocation of NFκB leads to inhibited binding of NFκB proteins to DNA, EMSA in HEK293 cells was performed. […] TPA-induced binding complex was attenuated by pretreatment with compound I in a dose-dependent manner (lanes 5-9). This binding inhibition parallels the inhibition of luciferase reporter transactivation and inhibition of nuclear translocation of NFκB proteins. The TPA-induced binding complex disappeared when the labeled NFκB oligonucleotide was competed with an excess of unlabelled probe (90× fold).
Background: In EMSA bound probe runs differently from free probe, usually more slowly.

Experiment [3] deals with VEGF promoter. As to the kind of experiment: VEGF promoter luciferase reporter assay in HEK293 cells. The class given is cell-based, human. Conditions: TPA 10 ng/ml 18 hours. The method, then:
as §1
Three different luciferase reporter genes, AP-1 reporter containing four times TRE consensus originated from GCN4 and SRE reporter purchased from Stratagene (La Jolla, Calif.) respectively are as described previously (Suzukawa et al., Environ. Health Perspect., 2002, 110, 865-70). […]
Inhibition of NFκB transactivation would be expected to result in suppressed expression of genes whose transcription depends on NFκB. Quantitative RT-PCR was used to measure endogenous levels of IL-6 mRNA, transcribed from a gene whose transcription depends on NFκB but not AP-1. […]
On the technique in general: A reporter such as luciferase makes a cellular process visible.

Experiment [4] deals with p65. Description: Immunoblot of phosphorylated p65. The experiment is classed as cell-based. The protocol:
To measure endogenous level of several proteins in response to TPA induction and compound I, HEK293 cells were lysed with RIPA buffer (10 mM Tris-HCl pH 7.5, 1 mM EDTA, 0.1% sodium dodecyl sulfate, 0.1% deoxycholate, and protease inhibitor). Whole cell extracts were subjected to immunoblot analysis with the following antibodies: p65 (F-6), p50 (E-10), p52 (C-5), RelB (C-19), IκBα (C-21), PCNA (F-2) were obtained from Santa Cruz Biotechnology (Santa Cruz, Calif.). IKKα, IKKβ, IKKγ, phospho-IκBα, phospho-IKKα/β, phospho-IKKγ, pohospho-Stat3 (Tyr 705 and Ser 727), phospho-p65 (Ser536 and Ser276), phospho-p44/42, phospho-JNKs were purchased from Cell Signaling (Danvers, Mass.), and α-tubulin from Sigma (St. Louis, Mo.). Nuclear and cytoplasmic extracts were prepared with HEK293 cells by NE-PER Nuclear and Cytoplasmic Extraction Reagents (Pierce Biotechnology, Rockford, Ill.) according to the manufacturer's protocol.
Background: In western blotting, separated proteins are transferred to a membrane and probed.

The mark [5] stands for this setting: concentrations as low as 1.1 μM.

For orientation: IC50 means the concentration needed to halve the response being measured.

As to `Cc1cc(N)ccc1N=Nc1ccc(S(=O)(=O)CCOS(=O)(=O)O)cc1` [compound I, 2-(4-((4-amino-2-methylphenyl)diazenyl)phenylsulfonyl)ethyl hydrogen sulfate], in experiment [1] (HEK293, TPA 10 ng/ml, compound I at all concentrations tested), the “Inhibition of TPA-induced NFκB luciferase activity” value is “dose-dependently inhibited”. In addition, the IC50 in experiment [1] (Homo sapiens, HEK293, 1 h pretreatment, TPA 10 ng/ml 18 hrs, read-out: IC50 against TPA-induced NFκB reporter) was about 4 µM. For the same compound, the “Inhibition of NFκB induced by TNFα” value in experiment [1] (TNFα induction) is on record as “dose-dependent inhibition”. Besides, the “TPA-induced NFκB luciferase activity” value in experiment [1] (compound at 17.0 μM) is “completely blocked to the non-induced level”. For the same compound, the “Transcriptional activation of NFκB dependent genes” value in experiment [1] (setting [5]) is recorded as “repressed”. Moreover, in experiment [1] (without TPA induction), the “Basal NFκB luciferase activity” value is reported as “inhibited, but to a lesser extent”. Moreover, the “NFκB DNA binding” value in experiment [2] (setting [5]) is “repressed”. Besides, the “TPA-induced NFκB DNA binding complex, dose-dependent manner” value in experiment [2] (lanes 5-9, 1 hour pretreatment, TPA 18 hours) is “attenuated”. Also, the “TPA-induced NFκB DNA binding complex” value in experiment [2] (pretreatment at 17 μM) was “marked loss of binding complex”. Also, the “Luciferase activity driven by VEGF promoter” value in experiment [3] was “did not significantly affect”. Moreover, in experiment [4], the “Phosphorylation of p65 at Ser536” value is “inhibited”. For the same compound, in experiment [4] (FIG. 7), the “Phosphorylation of p65 at Ser536 and Ser276” value is “decreased”.
